Values joined by “and” are separate entries in the source; they are usually repeats but may differ in a detail not shown here. Equal entries are not always repeated.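 Method: 48-hour compound exposure of cells in 96-well plates, five concentrations, linear interpolation of endpoints. GI50 is the concentration that inhibits growth by half. TGI denotes the concentration required for complete inhibition of growth.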
What was measured:
Assay in all cases: NCI anticancer screen, dose series, 48 h
[1] = system: UACC-62 melanoma
[2] = system: OVCAR-8 ovarian
[3] = system: MOLT-4 leukemia
[4] = system: SN12C renal
[5] = system: ACHN renal
[6] = system: MALME-3M melanoma
[7] = system: HCT-15 colon
[8] = system: SNB-75 CNS
[9] = system: SF-295 CNS
[10] = system: HCC-2998 colon

SMILES	GI50 [1] [µM]	TGI [1]	GI50 [2] [µM]	TGI [2]	GI50 [3] [µM]	TGI [3] [µM]	GI50 [4] [µM]	TGI [4] [µM]	GI50 [5] [µM]	TGI [5] [µM]	GI50 [6] [µM]	TGI [6]	GI50 [7] [µM]	TGI [7]	GI50 [8] [µM]	TGI [8] [µM]	GI50 [9] [µM]	TGI [9]	GI50 [10] [µM]	TGI [10] [µM]
COc1ccc2c(c1)/C(=C/c1cc(OC)c(OC)c(OC)c1)C(=O)N2	0.37	> 100 µM	1.28	> 100 µM	0.216	> 100	1.18	> 100	4.19	> 100	0.556	> 100 µM	0.393	> 100 µM	0.483	2.05	0.104	0.602 µM	0.586	16
C=CC(OCC)(OCC)OCC		> 100 µM		> 100 µM		> 100		> 100		> 100		> 100 µM		> 100 µM		> 100		> 100 µM		> 100
O=c1c(F)cn(Cc2ccccc2CCl)c(=O)n1Cc1ccccc1CCl	1.33	2.94 µM	0.977	2.99 µM	1.77	4.69	2.75	10.4	1.58	3.04	2.2	4.59 µM	1.83	4.45 µM	1.97	6.36	2.14	6.16 µM	2.09	4.47
CCC(=O)Nc1nc2c(ncn2C2OC(COC(=O)CC)C(OC(=O)CC)C2OC(=O)CC)c(=O)[nH]1 (stereo not drawn)		> 100 µM		> 100 µM		> 100		> 100		> 100		> 100 µM		> 100 µM		> 100		> 100 µM		> 100
O=[N+]([O-])c1ccc(-c2ccc(-c3csc(Nc4ccccc4)n3)o2)cc1		37.2 µM		40.7 µM		46.2		33		31.1		32.1 µM		42.5 µM		> 56.8		> 86.4 µM		56.5
CC(NC(=O)N(C)C)NC(=O)N(C)C		> 10 µM		> 10 µM		> 10		> 10		> 10		> 10 µM		> 10 µM		> 10		> 10 µM		> 10
COc1ccc(/C(=N\NC(=S)NN)C(c2ccc(OC)cc2)C2C(=O)Oc3ccccc32)cc1 (stereo not drawn)	> 100	> 100 µM	> 100	> 100 µM	> 100	> 100	> 100	> 100	> 100	> 100	> 100	> 100 µM	> 100	> 100 µM	> 100	> 100	> 100	> 100 µM		> 100
COc1ccc(C(=O)NCCN(C)C)c2nc3ccccc3nc12		17.8 µM		> 41.5 µM		7.3		80.1		> 100		6.8 µM		24.4 µM		78		> 36.1 µM		26.3
CCNC(=O)c1noc(-c2cc(C(C)C)c(O)cc2O)c1-c1ccc(CN2CCOCC2)cc1	0.0333	4.92 µM	0.0423	28.9 µM	0.0326	> 100	0.0707	> 100	0.0373	> 100	0.025	12.1 µM	0.0388	19.9 µM	4.51	55.8	0.0287	11.2 µM	0.0267	1.05
CC(=O)O[C@H]1CCc2c(cc(N)c3c2C(=O)C[C@]2(C)C([C@H](C)CCCC(C)C)CCC32C)C1(C)C (stereo partly drawn)		> 100 µM		> 100 µM		> 100		> 100		> 100		> 100 µM		> 100 µM		> 100		> 100 µM		> 100
CN(C)C(=O)O[C@H]1CN[C@H](C#Cc2cc3ncnc(Nc4ccc(OCc5cccc(F)c5)c(Cl)c4)c3s2)C1	> 25	> 25 µM	7.58	> 25 µM	4.53	> 25	5.64	> 25	6.27	> 25	5.15	14.5 µM	14.2	> 25 µM	9.66	> 25	> 20	> 25 µM	11.3	> 25
CSC(=S)N/N=C/c1nccc2ccccc12		6.08 µM		4.96 µM		3.65		12.7		12.2		32.7 µM		40 µM		14		8.54 µM		11.3
O=c1oc2ccc(I)cc2c(=O)n1-c1ccc(Cl)cc1F	0.419	2.28 µM	1.66	24.9 µM	2.24	6.81	0.8	8.77	1.62	12.8	0.516	3.49 µM	2.37	12.6 µM	0.5	2.97	1.8	3.69 µM	3.18	12.9
O=C(Nc1ccc(Cl)c(Cl)c1)NS(=O)(=O)c1cnccc1Oc1ccc(F)cc1	4.16	> 100 µM	4.82	> 100 µM	2.68	8.58	3.38	15.4	3.22	> 100	2.53	7.55 µM	3.32	> 100 µM	3.85	> 100	1.65	4.8 µM	4.43	38.1
COC(=O)C(/C(=N\O)C(=O)Nc1cccc(Cl)c1C)c1cnc2ccccc2n1 (stereo not drawn)		> 100 µM		> 100 µM		> 100		> 100		> 100		> 100 µM		> 100 µM		> 100		> 100 µM		> 100
COC(=O)C1(O)CC(=O)CCC1c1ccc(OC)cc1 (stereo not drawn)		> 100 µM		> 100 µM		> 100		> 100		> 100		> 100 µM		> 100 µM		> 100		> 100 µM		> 100
CN1/C(=C\C=C\C2=[N+](C)c3ccccc3C2(C)C)C(C)(C)c2ccccc21	0.124	1.45 µM	0.101	7.52 µM	0.146	1.87	0.155	1.11	0.268	3.15	0.0936	0.818 µM	0.387	7.85 µM	0.271	1.88	0.0336	1.27 µM	0.041	1.25
O=S(=O)(CCCl)c1ccc(Cl)cc1	5.63	19.4 µM	3.14	12.9 µM	3	> 100	4.46	16.9	3.52	13.1	2.23	7.2 µM	2.92	12.4 µM	2.4	29.8	18.2	47.5 µM	11.5	25.6
Cn1c2ccccc2c(=O)c2c(O)cc3c(c21)C=CC1(CCCCC1)O3		> 10 µM		> 10 µM		> 10		> 10		> 10		> 10 µM		> 10 µM		> 10		> 10 µM		> 10
CC(=O)OCC1OC(N2C(=O)C(=O)c3ccccc32)C(OC(C)=O)C(OC(C)=O)C1OC(C)=O (stereo not drawn)		> 100 µM		> 100 µM		> 100		> 100		> 100		> 100 µM		> 100 µM		> 100		> 100 µM		> 100
Cc1cc(I)cc(CN(C)CCCN2CCCC2)c1O	5.47	13.1 µM	45.3	> 100 µM	16.1	39.1	46.1	> 100	23.1	65.4	16.6	33.1 µM	19.1	47.5 µM	15.3	35.6	13.7	28.4 µM	19.1	35.6
CC(C)(C)c1cc(C=C(C#N)C#N)cc(C(C)(C)C)c1O		8.29 µM and 19.3 µM	0.355	23.6 µM and 48.1 µM		10.6	0.513	4.6		20.2	0.507	15.4 µM and 8.08 µM		14.1 µM and 19.9 µM	0.194		0.284	1.23 µM and 3.4 µM		18.4
CCOC(=O)/C(C#N)=C\C=C(/Cl)c1ccc(Cl)cc1	18.7	38.9 µM	19.4	42.1 µM	8.75	> 100	21	54.7	18.3	32.6	18.6	40.5 µM	15.1	33.6 µM	20.5	39.9	19	38.1 µM	16.1	31.1
C/C(=N/NC(=O)C[N+](C)(C)C)C(CN(C)C)C(=O)Nc1ccccc1 (stereo not drawn)		> 100 µM		> 100 µM		> 100		> 100		> 100		> 100 µM		> 100 µM		> 100		> 100 µM		> 100
Cc1nc(C(N)=S)sc1C(=O)/C=C/c1c(O)ccc2ccccc12		> 87.9 µM		> 100 µM		> 69		> 100		> 100		> 100 µM		> 100 µM		> 100		> 100 µM		> 100

From PubChem BioAssay (NCI)
